Results: patent US12227512B2, “Benzimidazoles and methods of using same” (priority 2019, dated 2025)

Key:
[1] = tested on: Gli-luciferace activity in the SUFU-KO-light cells; assay: SUFU-KO-Light assay, inhibition of Gli-luciferase activity; type: cell-based; details: read-out: IC50 (μM) SUFU-KO-Light; inhibition of Gli-luciferase activity; listed as Isis-11 (+isomer/E1)
From the text: IC50 SUFO-KO-Light values are for inhibition of Gli-luciferace activity in the SUFU-KO-light cells developed by the James Chen laboratory at Stanford University.

MB002 cells = assay: MTT assay, cell proliferation; type: cell-based; details: MB002, read-out: Dose E1
SARS-CoV-2 = details: SARS-CoV-2-infected Vero E6 cells; 6 concentrations, 48 hours; XTT
[2] = Mouse PK evaluation, plasma, IV; details: CD-1 mice; for concentration at 0.083 h / concentration at 0.25 h / concentration at 0.5 h / concentration at 1 h / concentration at 2 h / concentration at 4 h / concentration at 8 h / concentration at 24 h: Plasma concentration; for AUC(0-t): AUClast
[3] = CD-1, mouse, in vivo, 3 mg/kg, Mean, 3 mg/kg IV
[4] = CD-1, mouse, in vivo, 3 mg/kg, Mouse 1, 3 mg/kg IV
[5] = CD-1, mouse, in vivo, 3 mg/kg, Mouse 2, 3 mg/kg IV
[6] = CD-1, mouse, in vivo, 3 mg/kg, Mouse 3, 3 mg/kg IV

For `CN(C)CCCn1c(N)nc2ccc3c(c21)CC(CN(C)C)O3` (single isomer, unassigned) [Compound E1], the IC50 [1] was 5 µM, the IC50 (MB002 cells) was 16.5 µM and the “effect on viral replication over the tested concentration range” value (SARS-CoV-2) was “no effect on viral replication”. For the same molecule, the “AUC_%Extrap_obs, Mean” value ([2]; 3 mg/kg IV) was 20.8%, the “AUC_%Extrap_obs, Mouse 1” value ([2]; 3 mg/kg IV) was 25.7% and the “AUC_%Extrap_obs, Mouse 2” value ([2]; 3 mg/kg IV) was 20.8%. The “AUC_%Extrap_obs, Mouse 3” value ([2]; 3 mg/kg IV) was 15.9%, the “AUClast/D, Mean” value ([2]; 3 mg/kg IV) was 116 and the “AUClast/D, Mouse 1” value ([2]; 3 mg/kg IV) was 107. The “AUClast/D, Mouse 2” value ([2]; 3 mg/kg IV) was 108, the “AUClast/D, Mouse 3” value ([2]; 3 mg/kg IV) was 132 and the “C0, Mean” value ([2]; 3 mg/kg IV) was 664 ng/mL. For the same molecule, the “C0, Mouse 1” value ([2]; 3 mg/kg IV) was 619 ng/mL, the “C0, Mouse 2” value ([2]; 3 mg/kg IV) was 624 ng/mL and the “C0, Mouse 3” value ([2]; 3 mg/kg IV) was 749 ng/mL. The “Cl_obs, Mean” value ([2]; 3 mg/kg IV) was 115 mL/min/kg, the “Cl_obs, Mouse 1” value ([2]; 3 mg/kg IV) was 116 mL/min/kg and the “Cl_obs, Mouse 2” value ([2]; 3 mg/kg IV) was 122 mL/min/kg. The “Cl_obs, Mouse 3” value ([2]; 3 mg/kg IV) was 106 mL/min/kg, the “Vss_obs, Mean” value ([2]; 3 mg/kg IV) was 90 L/kg and the “Vss_obs, Mouse 1” value ([2]; 3 mg/kg IV) was 104 L/kg. For the same molecule, the “Vss_obs, Mouse 2” value ([2]; 3 mg/kg IV) was 96.2 L/kg, the “Vss_obs, Mouse 3” value ([2]; 3 mg/kg IV) was 68.3 L/kg and the “Plasma concentration, Mouse 1” value ([2]; 3 mg/kg IV, 0.5 h) was 45.5 ng/mL. The “Plasma concentration, Mouse 1” value ([2]; 3 mg/kg IV, 1 h) was 21.4 ng/mL, the “Plasma concentration, Mouse 1” value ([2]; 3 mg/kg IV, 2 h) was 13.4 ng/mL and the “Plasma concentration, Mouse 1” value ([2]; 3 mg/kg IV, 24 h) was 10.0 ng/mL. The “Plasma concentration, Mouse 3” value ([2]; 3 mg/kg IV, 24 h) was 4.33 ng/mL, the concentration at 0.083 h [2, 3] was 387 ng/mL and the concentration at 0.25 h [2, 3] was 131 ng/mL. The concentration at 0.5 h ([2]; CD-1, mouse, in vivo, 3 mg/kg, Mean, 3 mg/kg IV, 0.5 h) was 59.1 ng/mL, the concentration at 1 h ([2]; CD-1, mouse, in vivo, 3 mg/kg, Mean, 3 mg/kg IV, 1 h) was 42.9 ng/mL and the concentration at 2 h ([2]; CD-1, mouse, in vivo, 3 mg/kg, Mean, 3 mg/kg IV, 2 h) was 17.8 ng/mL. For the same molecule, the concentration at 4 h [2, 3] was 13.5 ng/mL, the concentration at 8 h [2, 3] was 7.3 ng/mL and the concentration at 24 h ([2]; CD-1, mouse, in vivo, 3 mg/kg, Mean, 3 mg/kg IV, 24 h) was 6.1 ng/mL. It also gave a concentration at 0.083 h [2, 4] of 352 ng/mL, a concentration at 0.25 h [2, 4] of 113 ng/mL and a concentration at 4 h [2, 4] of 13.3 ng/mL. It also gave a concentration at 8 h [2, 4] of 5.5 ng/mL, a concentration at 0.083 h [2, 5] of 367 ng/mL and a concentration at 0.25 h [2, 5] of 126 ng/mL. For the same molecule, the concentration at 0.5 h ([2]; CD-1, mouse, in vivo, 3 mg/kg, Mouse 2, 3 mg/kg IV, 0.5 h) was 60.9 ng/mL, the concentration at 1 h ([2]; CD-1, mouse, in vivo, 3 mg/kg, Mouse 2, 3 mg/kg IV, 1 h) was 51.8 ng/mL and the concentration at 2 h ([2]; CD-1, mouse, in vivo, 3 mg/kg, Mouse 2, 3 mg/kg IV, 2 h) was 20.7 ng/mL. For the same molecule, the concentration at 4 h [2, 5] was 12.9 ng/mL, the concentration at 8 h [2, 5] was 6.2 ng/mL and the concentration at 24 h ([2]; CD-1, mouse, in vivo, 3 mg/kg, Mouse 2, 3 mg/kg IV, 24 h) was 4.11 ng/mL. The concentration at 0.083 h [2, 6] was 443 ng/mL, the concentration at 0.25 h [2, 6] was 154 ng/mL and the concentration at 0.5 h ([2]; CD-1, mouse, in vivo, 3 mg/kg, Mouse 3, 3 mg/kg IV, 0.5 h) was 71 ng/mL. The concentration at 1 h ([2]; CD-1, mouse, in vivo, 3 mg/kg, Mouse 3, 3 mg/kg IV, 1 h) was 55.5 ng/mL, the concentration at 2 h ([2]; CD-1, mouse, in vivo, 3 mg/kg, Mouse 3, 3 mg/kg IV, 2 h) was 19.2 ng/mL and the concentration at 4 h [2, 6] was 14.3 ng/mL. The concentration at 8 h [2, 6] was 10.2 ng/mL, the AUC(0-inf) ([2]; CD-1, mouse, in vivo, iv, 3 mg/kg, AUCInf, Mouse 3, 3 mg/kg IV) was 470 ng·h/mL and the AUC(0-t) ([2]; CD-1, mouse, in vivo, iv, 3 mg/kg, Mean, 3 mg/kg IV) was 347 ng·h/mL. The AUC(0-t) ([2]; CD-1, mouse, in vivo, iv, 3 mg/kg, Mouse 1, 3 mg/kg IV) was 321 ng·h/mL, the AUC(0-t) ([2]; CD-1, mouse, in vivo, iv, 3 mg/kg, Mouse 2, 3 mg/kg IV) was 324 ng·h/mL and the AUC(0-t) ([2]; CD-1, mouse, in vivo, iv, 3 mg/kg, Mouse 3, 3 mg/kg IV) was 395 ng·h/mL. The MRT inf ([2]; CD-1, mouse, in vivo, iv, 3 mg/kg, MRTInf_obs, Mouse 3, 3 mg/kg IV) was 10.7 h and the half-life ([2]; CD-1, mouse, in vivo, iv, 3 mg/kg, T1/2, Mouse 3, 3 mg/kg IV) was 720 min.
